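Compound exposure: 48 hours, 5 concentrations, 96-well plates. The concentration for full growth arrest is given as TGI.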
Experiments:
Test in all cases: NCI tumour cell line growth inhibition, 48 h
[1] = system: 786-0 renal
[2] = system: A498 renal
[3] = system: A549 NSCLC
[4] = system: ACHN renal
[5] = system: BT-549 breast
[6] = system: CAKI-1 renal
[7] = system: CCRF-CEM leukemia
[8] = system: COLO 205 colon
[9] = system: DU-145 prostate
[10] = system: EKVX NSCLC
[11] = system: HCC-2998 colon
[12] = system: HCT-116 colon
[13] = system: HCT-15 colon
[14] = system: HL-60(TB) leukemia
[15] = system: HOP-62 NSCLC
[16] = system: HOP-92 NSCLC
[17] = system: HS 578T breast
[18] = system: HT29 colon
[19] = system: IGROV1 ovarian
[20] = system: K-562 leukemia
[21] = system: KM12 colon
[22] = system: LOX IMVI melanoma
[23] = system: M14 melanoma
[24] = system: MALME-3M melanoma
[25] = system: MCF7 breast
[26] = system: MDA-MB-231 breast
[27] = system: MDA-MB-435
[28] = system: MDA-N
[29] = system: MOLT-4 leukemia
[30] = system: NCI-H226 lung
[31] = system: NCI-H23 lung
[32] = system: NCI-H460 lung
[33] = system: NCI-H522 lung
[34] = system: NCI/ADR-RES ovarian
[35] = system: OVCAR-3 ovarian
[36] = system: OVCAR-4 ovarian
[37] = system: OVCAR-5 ovarian
[38] = system: OVCAR-8 ovarian
[39] = system: PC-3 prostate
[40] = system: RPMI-8226 leukemia
[41] = system: RXF 393 renal
[42] = system: SF-268 CNS
[43] = system: SF-295 CNS
[44] = system: SF-539 CNS
[45] = system: SK-MEL-2 melanoma
[46] = system: SK-MEL-28 melanoma
[47] = system: SK-MEL-5 melanoma
[48] = system: SK-OV-3 ovarian
[49] = system: SN12C renal
[50] = system: SNB-19 CNS
[51] = system: SNB-75 CNS
[52] = system: SR leukemia
[53] = system: SW-620 colon
[54] = system: T-47D breast
[55] = system: TK-10 renal
[56] = system: U251 CNS
[57] = system: UACC-257 melanoma
[58] = system: UACC-62 melanoma
[59] = system: UO-31 renal

NC(=S)N/N=C/c1ccc(N)cn1
TGI [1]: > 10 µM
TGI [2]: > 10 µM
TGI [3]: > 10 µM
TGI [4]: 7.65 µM
TGI [5]: > 10 µM
TGI [6]: > 10 µM
TGI [7]: > 10 µM
TGI [8]: 8.03 µM
TGI [9]: 7.76 µM
TGI [10]: > 10 µM
TGI [11]: > 10 µM
TGI [12]: > 10 µM
TGI [13]: > 10 µM
TGI [14]: 5.44 µM
TGI [15]: > 10 µM
TGI [16]: > 10 µM
TGI [17]: > 10 µM
TGI [18]: > 10 µM
TGI [19]: > 10 µM
TGI [20]: > 10 µM
TGI [21]: > 10 µM
TGI [22]: > 10 µM
TGI [23]: > 7.38 µM
TGI [24]: > 10 µM
TGI [25]: > 10 µM
TGI [26]: > 10 µM
TGI [27]: > 10 µM
TGI [28]: > 10 µM
TGI [29]: > 10 µM
TGI [30]: > 10 µM
TGI [31]: > 8.9 µM
TGI [32]: > 10 µM
TGI [33]: > 10 µM
TGI [34]: > 10 µM
TGI [35]: > 10 µM
TGI [36]: > 10 µM
TGI [37]: > 10 µM
TGI [38]: > 10 µM
TGI [39]: > 10 µM
TGI [40]: > 10 µM
TGI [41]: > 10 µM
TGI [42]: > 10 µM
TGI [43]: > 10 µM
TGI [44]: 2.2 µM
TGI [45]: > 10 µM
TGI [46]: > 10 µM
TGI [47]: > 6.95 µM
TGI [48]: > 10 µM
TGI [49]: > 10 µM
TGI [50]: > 10 µM
TGI [51]: > 10 µM
TGI [52]: > 10 µM
TGI [53]: > 10 µM
TGI [54]: > 10 µM
TGI [55]: > 10 µM
TGI [56]: > 10 µM
TGI [57]: > 10 µM
TGI [58]: > 10 µM
TGI [59]: 6.97 µM

Cn1cc(S(=O)(=O)NC(=O)Nc2ccc(Cl)cc2)c2ccccc21
TGI [1]: > 100 µM
TGI [2]: > 100 µM
TGI [3]: > 100 µM
TGI [4]: > 100 µM
TGI [5]: > 100 µM
TGI [6]: 81 µM
TGI [7]: > 100 µM
TGI [8]: > 100 µM
TGI [9]: > 100 µM
TGI [10]: > 100 µM
TGI [11]: > 100 µM
TGI [12]: > 100 µM
TGI [13]: 20.7 µM
TGI [14]: > 100 µM
TGI [15]: > 100 µM
TGI [16]: > 100 µM
TGI [17]: > 100 µM
TGI [18]: > 100 µM
TGI [19]: > 100 µM
TGI [20]: > 100 µM
TGI [21]: > 100 µM
TGI [22]: > 100 µM
TGI [23]: > 100 µM
TGI [24]: > 100 µM
TGI [25]: > 100 µM
TGI [26]: > 100 µM
TGI [27]: > 100 µM
TGI [28]: > 100 µM
TGI [29]: > 100 µM
TGI [30]: > 100 µM
TGI [31]: > 100 µM
TGI [32]: > 100 µM
TGI [33]: 69.3 µM
TGI [34]: > 100 µM
TGI [35]: > 100 µM
TGI [36]: > 100 µM
TGI [37]: > 100 µM
TGI [38]: > 100 µM
TGI [39]: > 100 µM
TGI [40]: > 100 µM
TGI [41]: > 100 µM
TGI [42]: > 100 µM
TGI [43]: > 100 µM
TGI [44]: > 100 µM
TGI [45]: > 100 µM
TGI [46]: > 100 µM
TGI [47]: > 100 µM
TGI [48]: > 100 µM
TGI [49]: > 100 µM
TGI [50]: > 100 µM
TGI [51]: > 100 µM
TGI [52]: > 100 µM
TGI [53]: > 100 µM
TGI [54]: > 100 µM
TGI [55]: 55.2 µM
TGI [56]: > 100 µM
TGI [57]: > 100 µM
TGI [58]: 79.9 µM
TGI [59]: > 100 µM

c1cc(CSSCc2ccncc2)ccn1
TGI [1]: > 100 µM
TGI [2]: > 100 µM
TGI [3]: > 100 µM
TGI [4]: > 100 µM
TGI [5]: > 100 µM
TGI [6]: > 100 µM
TGI [7]: 24.2 µM
TGI [8]: 49.2 µM
TGI [9]: > 66.4 µM
TGI [10]: > 100 µM
TGI [11]: 58.7 µM
TGI [12]: > 100 µM
TGI [13]: > 100 µM
TGI [14]: 42.4 µM
TGI [15]: > 100 µM
TGI [16]: > 100 µM
TGI [17]: 76 µM
TGI [18]: > 100 µM
TGI [19]: > 100 µM
TGI [20]: > 100 µM
TGI [21]: > 100 µM
TGI [22]: > 100 µM
TGI [23]: > 82.6 µM
TGI [24]: > 100 µM
TGI [25]: > 100 µM
TGI [26]: > 100 µM
TGI [27]: > 68.3 µM
TGI [28]: 62.9 µM
TGI [29]: 23.7 µM
TGI [30]: > 85.5 µM
TGI [31]: > 93.2 µM
TGI [32]: > 84.9 µM
TGI [33]: 60.2 µM
TGI [34]: > 85.3 µM
TGI [35]: > 100 µM
TGI [36]: > 100 µM
TGI [37]: > 100 µM
TGI [38]: > 100 µM
TGI [39]: > 100 µM
TGI [40]: > 65.3 µM
TGI [41]: > 75.7 µM
TGI [42]: > 94.3 µM
TGI [43]: > 100 µM
TGI [44]: 50.2 µM
TGI [45]: 82.1 µM
TGI [46]: > 100 µM
TGI [47]: 56.6 µM
TGI [48]: > 100 µM
TGI [49]: > 100 µM
TGI [50]: > 100 µM
TGI [51]: > 100 µM
TGI [52]: 30.3 µM
TGI [53]: > 100 µM
TGI [54]: > 100 µM
TGI [55]: > 100 µM
TGI [56]: > 70.9 µM
TGI [57]: > 100 µM
TGI [58]: > 100 µM
TGI [59]: > 100 µM

COC(=O)/C=C(/C(=O)OC)c1cc2ccc3c([nH]c4ccccc43)c(C)c-2c1
TGI [1]: 20.1 µM
TGI [2]: 23.5 µM
TGI [3]: > 100 µM
TGI [4]: > 100 µM
TGI [5]: 23.1 µM
TGI [6]: > 100 µM
TGI [7]: 10.8 µM
TGI [8]: 3.3 µM
TGI [9]: 42.2 µM
TGI [10]: 24.2 µM
TGI [11]: 13 µM
TGI [12]: 16.3 µM
TGI [13]: 29 µM
TGI [14]: 12.5 µM
TGI [15]: 37.5 µM
TGI [16]: 5.43 µM
TGI [17]: 8.91 µM
TGI [18]: 8.9 µM
TGI [19]: 13.1 µM
TGI [20]: 7.09 µM
TGI [21]: 36.5 µM
TGI [22]: 14.5 µM
TGI [23]: 16 µM
TGI [24]: 19.6 µM
TGI [25]: 13.3 µM
TGI [26]: 15.1 µM
TGI [27]: 25.1 µM
TGI [28]: 9.9 µM
TGI [29]: 11.5 µM
TGI [30]: 19.8 µM
TGI [31]: 24.7 µM
TGI [32]: 18.6 µM
TGI [33]: 5.83 µM
TGI [34]: > 100 µM
TGI [35]: 12 µM
TGI [36]: 69.3 µM
TGI [37]: 13.6 µM
TGI [38]: 25.2 µM
TGI [39]: 14.2 µM
TGI [40]: 25.2 µM
TGI [41]: > 100 µM
TGI [42]: 21.4 µM
TGI [43]: 16.4 µM
TGI [44]: 31.5 µM
TGI [45]: 26.8 µM
TGI [46]: 30.2 µM
TGI [47]: 9.18 µM
TGI [48]: 36.9 µM
TGI [49]: 27 µM
TGI [50]: 23.2 µM
TGI [51]: 59.2 µM
TGI [52]: 8.59 µM
TGI [53]: 27.1 µM
TGI [54]: > 100 µM
TGI [55]: > 100 µM
TGI [56]: 18.1 µM
TGI [57]: 28.2 µM
TGI [58]: 17.8 µM
TGI [59]: 17.1 µM
